Measurements taken from US8288394B2, “1-(1H-1,2,4-triazol-1-yl)butan-2-ol derivative for pharmaceutical use, and the use of a 1-(1H-1,2,4-triazol-1-yl)butan-2-ol derivative with substantially undefined crystal shape for preparing said 1-(1H-1,2,4-triazol-1-yl)butan-2-ol derivative” (Medichem, S.A., priority 2009, dated 2012).

Columns and labels:
Type in all cases: physicochemical
[1] = Particle size distribution, laser diffraction (Malvern Mastersizer S, wet); conditions: for Particle Size Distribution D10 / Particle Size Distribution D50 / Particle Size Distribution D90: by volume, mean of six; for D[3,2] (Sauter diameter, DMVS): mean diameter by surface area to volume; for Particle Size Distribution D[4,3]: mean diameter by volume
Description: The particle size parameters measured in the present invention have been obtained by means of laser light diffraction technique, and specifically by means of a Malvern Mastersizer S particle size analyzer having characteristics as set out below. Namely, the laser source used was a 2 milliwatt Helium/neon laser (633 nm wavelength); the detection system was a Fourier Transform lens system; the sample was run using a 2.40 mm lens; the sample unit was a sample unit for wet measurement, and particularly was a MS1-Small volume Sample Dispersion Unit stirred cell. The wet dispersion was prepared by using deionized water as a dispersant, and the dispersion was controlled by stirring the unit cell. […] The characterization parameters (volume distributions) were measured for at least six times for each sample, and the result is a mean of said measured values for each sample.
The sample was run using the 2.40 mm lens. The sample unit was a MS1-Small Volume Sample Dispersion Unit stirred cell. The dispersant was deionized water. The sample particle size distribution was assumed to follow a normal distribution.
Analysis model: polydisperse. Setup presentation: 3_WATERF. Particle R.I.=(1.6800, 0.01). Dispersant R.I.=1.33.
This sample was sonicated for 2 minutes and delivered dropwise to the previously background and corrected measuring cell filled with dispersant (deionized water) until the obscuration reached the desired level. Volume distributions were obtained for at least six measures. For characterization, the values of D10, D50 and D90 (by volume), D[4,3] (mean diameter by volume) and D[3,2] (mean diameter by surface area to volume, or Sauter diameter) were specifically listed, each one being the mean of the six values available for each characterization parameter.
The notation DX [also written as D(v, 0.X)] means that X % of the particles have a diameter less than a specified diameter D. Thus a D90 [or D(v, 0.9)] of 100 μm means that 90% of the particles have a diameter less than 100 μm.

[2] = BET specific surface area (Micromeritics Gemini V, N2 at 77 K); conditions: N2 adsorption at 77 K
Description: The specific surface area values disclosed in the present invention have been obtained by means of a specific surface area analysis technique based on the BET (Brunauer, Emmett and Teller) theory, which is a well-accepted theory known in the art for the calculation of surface areas of solids by means of measuring their physical adsorption of gas molecules (See S. Brunauer, P. H. Emmett and E. Teller, J. Am. Chem. Soc., 1938, 60, 309). In particular, the specific surface area values measured in the present invention have been calculated from the BET surface area plot obtained by measuring the quantity of nitrogen gas molecules adsorbed by a weighted amount of solid at different relative pressures (P/P0) within the range 0.05-0.3, at 77 K. Precisely, the measurement of the adsorption of gas molecules was carried out by means of a Micromeritics™ Gemini V equipment having the characteristics as set out below. Namely, the gas used for adsorption measure was nitrogen gas. […] The sample for analysis was degassed (at 30° C. for 10 minutes and at 80° C. for one hour). The determination of the adsorption of nitrogen was measured at 77 K and for twelve relative pressures sufficiently dispersed within in the range of 0.05 to 0.3. (i.e. twelve absolute pressures in the range of 38.425 mmHg to 230.000 mmHg relative to a saturated pressure of 764,480 mmHg).
The sample for analysis was degassed at 30° C. for 10 minutes and at 80° C. for one hour.

[3] = Particle density by pycnometry; conditions: pycnometry at 25° C., n-heptane, mean of three
Protocol: The particle density experimental values were obtained by means of a pycnometer, specifically a 50 mL glass pycnometer. The measurements were carried out under technical characteristics as set out below. Namely, the determinations were done at 25° C.; the liquid of reference was n-heptane; the measurements were carried out three times, and the result is the mean of said measured values.

[4] = Sphericity factor calculated from density, Sauter diameter and specific surface area
Description: Flowability affects the ease with which the material is handled during processing into a pharmaceutical product. When the flowability is poor, problems occur with handling and processing during formulation. It is known that the shape of a particle affects its handling and flow properties. However, quantification of particle shape is extremely difficult for irregular and/or micronized particles. One of the most common ways of expressing the degree of irregularity of the particles is by means of the sphericity factor (ΨW), which is generally defined as the ratio between the surface area of a sphere having the same volume as the particle and the surface area of the particle:
[formula] where dv and ds are the equivalent volume and surface diameter, respectively (Part. Part. Syst. Charact. 1996, 13, 368-373).
Because sphericity factors are not calculated for each particle but for an assembly of particles, they have to be based on an average size. Thus, the sphericity factor will then be given by the following equation:
[formula] where SW is the powder specific surface area, ρ is the particle density and DMVS is the surface area mean diameter, also referred to as the mean volume-surface diameter, the Sauter diameter or D[3,2]. The Sauter diameter is defined as the diameter of a sphere that has the same volume/surface area ratio as the particle of interest.
A sphericity factor of 1.0 describes a perfect sphere with the greatest ease of flow (Encapsulated and powdered foods, CRC Press 2005). […] In this regard, sphericity factor values below 0.2 are usually found for low-flowability solids in form of platelets or needles. Therefore, a sphericity factor greater than 0.2 generally indicates an acceptable flowing material.

[5] = calculated using the measured particle density value
[6] = calculated using the reported crystal density value
[7] = listed as prior art micronized voriconazole

| Particle Size Distribution D10 [1] [μm] | Particle Size Distribution D50 [1] [μm] | Particle Size Distribution D90 [1] [μm] | D[3,2] (Sauter diameter, DMVS) [1] [μm] | Particle Size Distribution D[4,3] [1] [μm] | Specific Surface Area (BET), Sw [2] [m^2/g] | Density (experimental particle density ρ) [3] [g/mL] | sphericity factor Ψw [4, 5] | sphericity factor Ψw [4, 6] | D[3,2] (Sauter diameter, DMVS) [1, 7] | Density (experimental particle density ρ) [3, 7] | Structure (SMILES) |
| --- | --- | --- | --- | --- | --- | --- | --- | --- | --- | --- | --- |
| 7.6 | 32.3 | 92.7 | 15.8 | 42.8 | 1.1451 | 1.37 | 0.24 | 0.23 | – | – | C[C@@H](c1ncncc1F)[C@](O)(Cn1cncn1)c1ccc(F)cc1F [Example 5, voriconazole] |
| 2.5 | 7.3 | 29.9 | 5.2 | 14.2 | 1.5910 | – | – | 0.50 | – | – | C[C@@H](c1ncncc1F)[C@](O)(Cn1cncn1)c1ccc(F)cc1F [Example 8, voriconazole] |
| 6.0 | 21.7 | 56.2 | 12.2 | 27.3 | 1.0997 | 1.33 | 0.34 | 0.31 | – | – | C[C@@H](c1ncncc1F)[C@](O)(Cn1cncn1)c1ccc(F)cc1F [Example 3, voriconazole] |
| 7.5 | 25.3 | 57.4 | 14.3 | 24.9 | 1.1032 | – | – | 0.26 | – | – | C[C@@H](c1ncncc1F)[C@](O)(Cn1cncn1)c1ccc(F)cc1F [Example 7, voriconazole] |
| 7.4 | 29.7 | 102.8 | 15.4 | 44.5 | 0.9319 | 1.35 | 0.31 | 0.29 | – | – | C[C@@H](c1ncncc1F)[C@](O)(Cn1cncn1)c1ccc(F)cc1F [Example 2, voriconazole] |
| 8.6 | 33.4 | 92.3 | 17.2 | 43.3 | 0.9769 | 1.40 | 0.25 | 0.23 | – | – | C[C@@H](c1ncncc1F)[C@](O)(Cn1cncn1)c1ccc(F)cc1F [Example 6, voriconazole] |
| – | 15.2 | – | 8.3 | 28.7 | – | 1.40 | – | – | about 8.3 μm | about 1.400 g/cm^3 | C[C@@H](c1ncncc1F)[C@](O)(Cn1cncn1)c1ccc(F)cc1F [Comparative Example 2, voriconazole, reference compound] |
| 6.0 | 22.4 | 64.0 | 12.3 | 30.3 | 1.0992 | 1.32 | 0.34 | 0.31 | – | – | C[C@@H](c1ncncc1F)[C@](O)(Cn1cncn1)c1ccc(F)cc1F [Example 4, voriconazole] |
